Experiments:
[1] = system: vaginal and clitoral blood flow; assay: Anaesthetised rabbit model of sexual arousal: pelvic nerve stimulated genital blood flow by laser Doppler; format: in vivo, Female New Zealand rabbits
From the text: Animal Model of arousal response
We have developed an animal model that mimics the physiological arousal response observed during female sexual arousal and directly reflects the clinical data obtained in human volunteers. The model uses Laser Doppler technologies to record small changes in vaginal and clitoral blood flow induced by pelvic nerve stimulation or vasoactive neurotransmitters. During sexual arousal there is an increase in genital blood flow resulting from increased innervation from the pelvic nerve. This increase in genital blood flow leads to increased genital lubribriation and genital sensitivity which are associated with sexual arousal. The major cause of FSAD is decreased genital blood flow and this manifests itself as reduced vaginal, labial and clitoral engorgement. Treatment of women with FSAD is achievable by restoration of the normal sexual arousal response. This can be achieved by enhancing genital blood flow.
The title product from Example 29 was administered using this animal model according to the following protocol to show an enhancement in pelvic nerve stimulated increases in genital blood flow in the rabbit.
Two routes of administration were studied: a) intravenous administration and b) topical administration. Both studies used the anesthatised rabbit model according to the following protocol.
Female New Zealand rabbits (˜2.5 kg) were pre-medicated with a combination of Medetomidine (Domitor®) 0.5 ml/kg i.m., and Ketamine (Vetalar®) 0.25 ml/kg i.m. whilst maintaining oxygen intake via a face mask. The rabbits were tracheotomised using a Portex™ uncuffed endotracheal tube 3 ID, connected to ventilator and maintained a ventilation rate of 30-40 breaths per minute, with an approximate tidal volume of 18-20 ml, and a maximum airway pressure of 10 cm H2O. Anaesthesia was then switched to Isoflurane and ventilation continued with O2 at 2 l/min. The right marginal ear vein was cannulated using a 23 G or 24 G catheter, and Lactated Ringer solution perfused at 0.5 ml/min. The rabbit was maintained at 3% Isoflurane during invasive surgery, dropping to 2% for maintenance anaesthesia.
A ventral midline incision was made into the abdominal cavity. The incision was about 5 cm in length just above the pubis. The fat and muscle was bluntly dissected away to reveal the hypogastric nerve which runs down the body cavity. It was essential to keep close to the side curve of the pubis wall in order to avoid damaging the femoral vein and artery which lie above the pubis. The sciatic and pelvic nerves lie deeper and were located after further dissection on the dorsal side of the rabbit. Once the sciatic nerve is identified, the pelvic nerve was easily located. The term pelvic nerve is loosely applied; anatomy books on the subject fail to identify the nerves in sufficient detail. However, stimulation of the nerve causes an increase in vaginal and clitoral blood flow, and innervation of the pelvic region. The pelvic nerve was freed away from surrounding tissue and a Harvard bipolar stimulating electrode was placed around the nerve. The nerve was slightly lifted to give some tension, then the electrode was secured in position. Approximately 1 ml of light paraffin oil was placed around the nerve and electrode. […]
A frequency response curve was determined at the start of each experiment in order to determine the optimum frequency to use as a sub-maximal response, normally 4 Hz. […]

[2] = 1.0 mg/kg iv bolus infusion, submaximal stimulation (eg 4 Hz), anaesthetised rabbit, n=3

Row | Compound | increase in clitoral blood flow (peak, pelvic nerve stimulated) [1, 2] [%] | increase in vaginal blood flow (peak, pelvic nerve stimulated) [1, 2] [%] | pelvic nerve stimulated increases in genital blood flow ([1]; both intravenous and topical administration, clinically relevant doses, rabbit) | peak pelvic nerve stimulated increase in vaginal blood flow ([1]; intravaginal topical application (0.2 mg/ml printed), vs mean control flow increases, n=4, P<0.001) | basal (non-stimulated) vaginal blood flow ([1]; intravaginal topical application, compared to control flow, n=4) | melting point [°C]
1 | CCC[C@H](CC1(C(=O)Nc2nnc(CC)s2)CCCC1)C(=O)O [Example 29, (2R)-2-[(1-{[(5-Ethyl-1,3,4-thiadiazol-2-yl)amino]carbonyl}cyclopentyl)methyl]pentanoic acid] | 131 | 92 | significantly enhanced | significantly enhanced | no effect | 
2 | O=C(O)C(CCc1ccccc1)CC1(C(=O)Nc2cccnc2)CCCC1 (stereo not drawn) [Example 41, 4-Phenyl-2-({1-[(3-pyridinylamino)carbonyl]cyclopentyl}methyl)butanoic acid] |  |  |  |  |  | 80 to 85
